{"source": "patent US20050245452A1", "about": "“Pharmaceutical use of novispirins” (Novozymes A/S, priority 2004, published 2005)", "key": {"[1]": {"tested_on": "Pseudomonas aeruginosa CF86/57388A (mucoid)", "test": "Pseudomonas aeruginosa lung infection in rats: lung pathology and lung bacteriology", "format": "in vivo, Lewis rat", "conditions": "for Lung bacteriology: Percentage of animals that cleared the bacteria in the lungs / Lung pathological scores: animals with Score 1 + 2 / Lung pathological scores: animals with Score 3 / Lung pathological scores: animals with Score 4: 0.1 mg/ml, 0.1 ml/rat intratracheally at hour 0 and 3", "experimental": "The bacterial strain, Pseudomonas aeruginosa, used in the study is CF86/57388A (1997), which is isolated from a cystic fibrosis patient and keeps stable mucoid phenotype. The rat strain used in the study is Lewis rat (7 weeks old, female) imported from Germany. Both bacterial challenge and drug administration were done intratracheally. All rats were challenged with mucoid P. aeruginosa in alginate. The concentration of the bacteria was 1×10^10 CFU/ml and each rat received 0.1 ml (1×10^9 CFU) bacteria. Control group received placebo (sterile saline, 0.1 ml/rat) twice at hour 0 and 3, and the Novispirin G10 group received the peptide (0.1 mg/ml, 0.1 ml/rat) twice at hour 0 and 3. The animals were sacrificed on day 3, 5, 7 and 10 after challenge for parameters evaluation."}, "[2]": {"tested_on": "Staphylococcus aureus (ATCC 25923)", "test": "Staphylococcus aureus wound infection in pigs (wound chambers, 4 hour time course)", "format": "in vivo, Göttinger minipigs", "conditions": "1 ml applied", "experimental": "The bacterial strain, Staphylococcus aureus, used in the study was ATCC 25923. The amino acid sequence of Novispirin G10 is shown in SEQ ID NO: 16.\nNovispirin G10 was diluted in 0.01% acetic acid containing 0.1% BSA with a final concentration of 1 mg (substrate)/ml (solution); 100 micrograms/ml; 10 micrograms/ml and 1 microgram/ml. The carrier control was 0.01% acetic acid containing 0.1% BSA. As a positive control was used Synthetic Protegrin 1 (Charité, Institut f. Biochemie d. Humboldt Universität Berlin) diluted in 0.01% acetic acid containing 0.1% BSA with a final concentration of 100 micrograms/ml.\nThe chambers are made of one piece of titanium, have a screw top cover (also made of titanium) and were built in teamwork with Cranio Construct Bochum. The chambers have a height of 14 mm, an inner diameter of 25 mm and an outer diameter of 32 mm without baseplate (with baseplate: 50 mm).\nAfter providing permission to conduct experiments with vertebrates in compliance with German animal protection laws, Göttinger minipigs (Fa. Ellegaard, Dalmose, Denmark; female, 6 months old, 25-30 kg weight) were chosen to implant the chambers on. The pigs were kept at least 2 weeks in the stable, fed a standard porcine diet and housed at 20° C. to 30° C. in an atmosphere of approximately 65% humidity with a light cycle of 12 hours on and 12 hours off. The animals used for this study appeared, during the experiments, clinically healthy—rectal temperature and body weight remained normal over the observed period.\nBefore wounding the skin was surgically prepared, washed with soap and disinfected with Octenisept (S&M, Norderstedt, Germany) for five minutes. Twelve BO-Chambers were implanted on the pigs back and flank between the base of the scapula and the iliac crest. The wounds were spaced a minimum of 5 cm apart and were created in four rows parallel to the columna vertebralis, two rows on each side of the columna vertebrtalis. The exact size and shape of the wounds were ensured by a special custom-made “round-scalpel” (also built in teamwork with Cranio Construct Bochum), which has a diameter of 33 mm. Epidermal, dermal subcutaneous tissues were removed, possible bleedings stanched by bipolar diathermy. The chambers were placed with an additionally secant v-incision at positions 6 respectively 12 o'clock on the musculus thoracicus longus fascia and the muscle fascia of the external ripcage muscles. The incisions were sutured with 2/0 Monocryl followed by the closure of the chambers. Povidone-iodine salve (Betaisodonna-salve, Mundipharma, Austria) was smothered on the wound edges. The chambers were dressed with paraffin gauze (Jelonet, Smith & Nephew, Lohfelden, Germany) and sterile compresses. Dressings were changed every second day under sedation (as described above).\nBacterial Background of each chamber was measured every second day, to detect potential contamination. Only one contaminated chamber was detected. Seven days post operation ten chambers were inoculated with bacteria.\nFor bacteria progeny Staphylococcus aureus (ATCC 25923) was plated on LB-Agar plate and incubated at 37° C. for 18 hours. One colony was picked and transfered into 3 ml LB-Medium for over night culture at 37° C. at 300 rpm. Over night culture was diluted in 50 ml fresh LB-Medium and incubated for 2.5 hours at 37° C. at 200 rpm.\nBacteria were pelleted, 4000 rpm, 5 min, Mergafuge 1.0 R (Heraeus, Hanau, Germany), and resuspended in PBS. Amount of containg bacteria was detremined by OD600 nm-measurement and calculated as follows: Colony forming Unit/ml=OD600 nm×2.5×10^8 (bacteria)\nTo inoculate one chamber 5×10^8 were used.\nThe establishment of the infection was proven by the measurement of bacterial counts per chamber. All inoculated chambers were infected after two days. Chamber No. 2 keeps bacteria free.\nAt day four after infection the antimicrobial effect of the testing substrate was measured in a time course of 4 hours in duration. […]"}}, "data": [{"substance": "Novispirin G10: novispirin antimicrobial polypeptide; amino acid sequence shown in SEQ ID NO: 16 (KNLRRIIRKGIHIIKKYG; Synthetic antimicrobial peptide)", "values": [{"measurement": "Lung bacteriology: Percentage of animals that cleared the bacteria in the lungs", "setting": "[1]; Day 3", "result": "(30%)"}, {"measurement": "Lung bacteriology: Percentage of animals that cleared the bacteria in the lungs", "setting": "[1]; Day 5", "result": "(50%)"}, {"measurement": "Lung bacteriology: Percentage of animals that cleared the bacteria in the lungs", "setting": "[1]; Day 7", "result": "(90%)"}, {"measurement": "Lung bacteriology: Percentage of animals that cleared the bacteria in the lungs", "setting": "[1]; Day 10", "result": "(100%)"}, {"measurement": "Gross lung pathology compared with the placebo control group", "setting": "[1]; all 4 time points (day 3, 5, 7, 10)", "result": "significantly milder lung pathology"}, {"measurement": "Histopathology of lungs", "setting": "[1]; day 3", "result": "lung consolidation with chronic inflammation is the dominant change"}, {"measurement": "Lung bacteriology compared to the control group", "setting": "[1]; day 3", "result": 175, "unit": "times lower"}, {"measurement": "Severity of lung scoring versus control group", "setting": "[1]; day 3", "result": "no significant difference in the severity of lung scoring"}, {"measurement": "Gross lung pathology: lung consolidation area", "setting": "[1]; day 3, versus placebo control", "result": "the consolidation area was much smaller"}, {"measurement": "Lung pathological scores: animals with Score 1 + 2", "setting": "[1]; day 3 after challenge", "result": "0/14 = 0%"}, {"measurement": "Lung pathological scores: animals with Score 3", "setting": "[1]; day 3 after challenge", "result": "3/14 = 21.4%"}, {"measurement": "Lung pathological scores: animals with Score 4", "setting": "[1]; day 3 after challenge", "result": "11/14 = 78.6%"}, {"measurement": "Histopathology of lungs", "setting": "[1]; day 5", "result": "milder chronic inflammation"}, {"measurement": "Lung pathological scores: animals with Score 1 + 2", "setting": "[1]; day 5 after challenge", "result": "0/14 = 0%"}, {"measurement": "Lung pathological scores: animals with Score 3", "setting": "[1]; day 5 after challenge", "result": "10/14 = 71.4%"}, {"measurement": "Lung pathological scores: animals with Score 4", "setting": "[1]; day 5 after challenge", "result": "0/14 = 0%"}, {"measurement": "Lung pathological scores: animals with Score 1 + 2", "setting": "[1]; day 7 after challenge", "result": "6/11 = 54.5%"}, {"measurement": "Lung pathological scores: animals with Score 3", "setting": "[1]; day 7 after challenge", "result": "5/11 = 45.5%"}, {"measurement": "Lung pathological scores: animals with Score 4", "setting": "[1]; day 7 after challenge", "result": "0/11 = 0%"}, {"measurement": "Histopathology of lungs", "setting": "[1]; day 10", "result": "the lung pathology was tended to be cured"}, {"measurement": "Lung pathological scores: animals with Score 1 + 2", "setting": "[1]; day 10 after challenge", "result": "11/14 = 78.6%"}, {"measurement": "Lung pathological scores: animals with Score 3", "setting": "[1]; day 10 after challenge", "result": "3/14 = 21.4%"}, {"measurement": "Lung pathological scores: animals with Score 4", "setting": "[1]; day 10 after challenge", "result": "0/14 = 0%"}, {"measurement": "Gross lung pathology: dominant finding", "setting": "[1]; days 5, 7 and 10", "result": "small lung atelectasis, no abscess and adhesion found"}, {"measurement": "Severity of lung scoring versus control group", "setting": "[1]; from day 5 on", "result": "significantly milder lung pathology"}, {"measurement": "Histopathology of lungs in comparison with the placebo control group", "setting": "[1]; overall, intratracheal treatment", "result": "milder lung inflammation and recover remarkably faster"}, {"measurement": "Mean CFU per ml sample volume (chamber fluid)", "setting": "[2]; 1 mg/ml, 0 hours", "result": 10700000, "unit": "CFU/ml"}, {"measurement": "Mean CFU per ml sample volume (chamber fluid)", "setting": "[2]; 1 mg/ml, 1 hour", "result": 2817, "unit": "CFU/ml"}, {"measurement": "Mean CFU per ml sample volume (chamber fluid)", "setting": "[2]; 1 mg/ml, 2 hours", "result": 2100, "unit": "CFU/ml"}, {"measurement": "Mean CFU per ml sample volume (chamber fluid)", "setting": "[2]; 1 mg/ml, 3 hours", "result": 833, "unit": "CFU/ml"}, {"measurement": "Mean CFU per ml sample volume (chamber fluid)", "setting": "[2]; 1 mg/ml, 4 hours", "result": 1233, "unit": "CFU/ml"}, {"measurement": "Mean CFU per ml sample volume (chamber fluid)", "setting": "[2]; 1 microgram/ml, 0 hours", "result": 9060000, "unit": "CFU/ml"}, {"measurement": "Mean CFU per ml sample volume (chamber fluid)", "setting": "[2]; 1 microgram/ml, 1 hour", "result": 2508333, "unit": "CFU/ml"}, {"measurement": "Mean CFU per ml sample volume (chamber fluid)", "setting": "[2]; 1 microgram/ml, 2 hours", "result": 159067, "unit": "CFU/ml"}, {"measurement": "Mean CFU per ml sample volume (chamber fluid)", "setting": "[2]; 1 microgram/ml, 3 hours", "result": 33858, "unit": "CFU/ml"}, {"measurement": "Mean CFU per ml sample volume (chamber fluid)", "setting": "[2]; 1 microgram/ml, 4 hours", "result": 148333, "unit": "CFU/ml"}, {"measurement": "Mean CFU per ml sample volume (chamber fluid)", "setting": "[2]; 10 micrograms/ml, 0 hours", "result": 5065000, "unit": "CFU/ml"}, {"measurement": "Mean CFU per ml sample volume (chamber fluid)", "setting": "[2]; 10 micrograms/ml, 1 hour", "result": 440500, "unit": "CFU/ml"}, {"measurement": "Mean CFU per ml sample volume (chamber fluid)", "setting": "[2]; 10 micrograms/ml, 2 hours", "result": 304500, "unit": "CFU/ml"}, {"measurement": "Mean CFU per ml sample volume (chamber fluid)", "setting": "[2]; 10 micrograms/ml, 3 hours", "result": 40910, "unit": "CFU/ml"}, {"measurement": "Mean CFU per ml sample volume (chamber fluid)", "setting": "[2]; 10 micrograms/ml, 4 hours", "result": 1563188, "unit": "CFU/ml"}, {"measurement": "Mean CFU per ml sample volume (chamber fluid)", "setting": "[2]; 100 micrograms/ml, 0 hours", "result": 1330000, "unit": "CFU/ml"}, {"measurement": "Mean CFU per ml sample volume (chamber fluid)", "setting": "[2]; 100 micrograms/ml, 1 hour", "result": 790033, "unit": "CFU/ml"}, {"measurement": "Mean CFU per ml sample volume (chamber fluid)", "setting": "[2]; 100 micrograms/ml, 2 hours", "result": 195125, "unit": "CFU/ml"}, {"measurement": "Mean CFU per ml sample volume (chamber fluid)", "setting": "[2]; 100 micrograms/ml, 3 hours", "result": 142765, "unit": "CFU/ml"}, {"measurement": "Mean CFU per ml sample volume (chamber fluid)", "setting": "[2]; 100 micrograms/ml, 4 hours", "result": 8467, "unit": "CFU/ml"}]}]}
